Measurements: patent publication US6706663B2, “Herbicidal 3-heterocyclic substituted benzisothiazole and benzisoxazole compounds” (Wyeth, priority 2000, dated 2004)

Key:
[1] = tested on: ABUTH (Abutilon theophrasti); test: Postemergence herbicidal evaluation; format: in vivo, Medic.; details: postemergence
Method in brief: (§1)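 Visual 0–9 injury scores versus control plants, covering stand, vigour, malformation, size, chlorosis and general appearance, taken four to five weeks post-spray and averaged over replicate tests. Plants were sprayed at roughly two weeks old and held on greenhouse benches.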

[2] = tested on: TRZAWR (Wheat, Winter, cv Riband); test: Preemergence herbicidal evaluation; format: in vivo, Triticum aestivum; details: rated 4-5 weeks after treatment
Method in brief: (§2)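 Preemergence soil spray, aq. acetone; greenhouse; visual 0–9 score vs control at 4–5 wk.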

[3] = tested on: CHEAL (Chenopodium album); test: Postemergence herbicidal evaluation; format: in vivo, L.; details: postemergence
Method in brief: as §1

[4] = tested on: CASOB (Cassia obtusifolia); test: Postemergence herbicidal evaluation; format: in vivo, L.; details: postemergence
Method in brief: as §1

[5] = tested on: AMBEL (Ambrosia artemisifolia); test: Postemergence herbicidal evaluation; format: in vivo, L.; details: postemergence
Method in brief: as §1

[6] = tested on: GLXMAW (Soybean, Williams); test: Postemergence herbicidal evaluation; format: in vivo, Glycine max, (L.) Merr. cv Williams; details: postemergence
Method in brief: as §1

[7] = tested on: GALAP (Galium aparine); test: Postemergence herbicidal evaluation; format: in vivo; details: postemergence
Method in brief: as §1

[8] = tested on: ORYSAT (Rice, Tebonnet); test: Preemergence herbicidal evaluation; format: in vivo, Oryza sativa, (L.) Tebonnet; details: rated 4-5 weeks after treatment
[9] = tested on: IPOHE (Ipomoea hederacea); test: Postemergence herbicidal evaluation; format: in vivo, (L.) Jacq.; details: postemergence
Method in brief: as §1

[10] = tested on: ZEAMX (Corn, Field); test: Postemergence herbicidal evaluation; format: in vivo, Zea mays, L.; details: postemergence
Method in brief: as §1

[11] = tested on: ECHCG (Echinochloa crus-galli); test: Preemergence herbicidal evaluation; format: in vivo, (L.) Beau; details: rated 4-5 weeks after treatment
Method in brief: as §2

[12] = tested on: SETVI (Setaria viridis); test: Preemergence herbicidal evaluation; format: in vivo, (L.) Beau; details: rated 4-5 weeks after treatment
Method in brief: as §2

[13] = tested on: GALAP (Galium aparine); test: Preemergence herbicidal evaluation; format: in vivo; details: rated 4-5 weeks after treatment
Method in brief: as §2

[14] = tested on: ORYSAT (Rice, Tebonnet); test: Postemergence herbicidal evaluation; format: in vivo, Oryza sativa, (L.) Tebonnet; details: postemergence
Method in brief: as §1

| SMILES | ABUTH herbicidal rating ([1]; rate 0.0320 kg/ha) | ABUTH herbicidal rating ([1]; rate 0.0620 kg/ha) | Preemergence herbicidal rating TRZAWR ([2]; Rate 0.0620 kg/ha) | Preemergence herbicidal rating TRZAWR ([2]; Rate 0.1250 kg/ha) | Preemergence herbicidal rating TRZAWR ([2]; Rate 0.2500 kg/ha) | CHEAL herbicidal rating ([3]; rate 0.0320 kg/ha) | CHEAL herbicidal rating ([3]; rate 0.0620 kg/ha) | CASOB herbicidal rating ([4]; rate 0.0320 kg/ha) | CASOB herbicidal rating ([4]; rate 0.0620 kg/ha) | AMBEL herbicidal rating ([5]; rate 0.0320 kg/ha) | AMBEL herbicidal rating ([5]; rate 0.0620 kg/ha) | GLXMAW herbicidal rating ([6]; rate 0.0320 kg/ha) | GLXMAW herbicidal rating ([6]; rate 0.0620 kg/ha) | GALAP herbicidal rating ([7]; rate 0.0320 kg/ha) | GALAP herbicidal rating ([7]; rate 0.0620 kg/ha) | Preemergence herbicidal rating ORYSAT ([8]; Rate 0.0620 kg/ha) | Preemergence herbicidal rating ORYSAT ([8]; Rate 0.1250 kg/ha) | Preemergence herbicidal rating ORYSAT ([8]; Rate 0.2500 kg/ha) | IPOHE herbicidal rating ([9]; rate 0.0320 kg/ha) | IPOHE herbicidal rating ([9]; rate 0.0620 kg/ha) | also measured |
| --- | --- | --- | --- | --- | --- | --- | --- | --- | --- | --- | --- | --- | --- | --- | --- | --- | --- | --- | --- | --- | --- |
| C=CC1COC(c2nsc3ccc(-n4c(=O)cc(C(F)(F)F)n(C)c4=O)cc23)O1 (centres unmarked) [Compound 76, 1-methyl-6-(trifluoromethyl)-3-[3-(4-vinyl-1,3-dioxolan-2-yl)-1,2-benzisothiazol-5-yl]uracil] | 9.0 | 9.0 | 7.0 | 8.0 | 8.0 | 9.0 | 9.0 | 4.0 | 5.0 | 9.0 | 9.0 | 7.0 | 8.0 | 5.0 | 7.0 | 7.0 | 8.5 | 9.0 | 7.0 | 9.0 | ZEAMX herbicidal rating ([10]; rate 0.0320 kg/ha): 3.5; ZEAMX herbicidal rating ([10]; rate 0.0620 kg/ha): 4.5; Preemergence herbicidal rating ECHCG ([11]; Rate 0.0620 kg/ha): 9.0; Preemergence herbicidal rating ECHCG ([11]; Rate 0.1250 kg/ha): 9.0; Preemergence herbicidal rating ECHCG ([11]; Rate 0.2500 kg/ha): 9.0; Preemergence herbicidal rating SETVI ([12]; Rate 0.0620 kg/ha): 9.0; Preemergence herbicidal rating SETVI ([12]; Rate 0.1250 kg/ha): 9.0; Preemergence herbicidal rating SETVI ([12]; Rate 0.2500 kg/ha): 9.0; Preemergence herbicidal rating GALAP ([13]; Rate 0.0620 kg/ha): 7.0; Preemergence herbicidal rating GALAP ([13]; Rate 0.1250 kg/ha): 9.0; Preemergence herbicidal rating GALAP ([13]; Rate 0.2500 kg/ha): 9.0; ORYSAT herbicidal rating ([14]; rate 0.0320 kg/ha): 3.5; ORYSAT herbicidal rating ([14]; rate 0.0620 kg/ha): 4.0 |
| CCCC1COC(c2nsc3ccc(-n4c(=O)cc(C(F)(F)F)n(C)c4=O)cc23)O1 (centres unmarked) [Compound 77, 1-methyl-3-[3-(4-propyl-1,3-dioxolan-2-yl)-1,2-benzisothiazol-5-yl]-6-(trifluoromethyl)uracil] | 9.0 | 9.0 | 6.0 | 6.0 | 7.0 | 9.0 | 9.0 | 4.0 | 6.0 | 9.0 | 9.0 | 7.5 | 8.5 | 4.0 | 7.0 | 5.0 | 5.0 | 5.5 | 9.0 | 9.0 | ZEAMX herbicidal rating ([10]; rate 0.0320 kg/ha): 3.0; ZEAMX herbicidal rating ([10]; rate 0.0620 kg/ha): 3.5; Preemergence herbicidal rating ECHCG ([11]; Rate 0.0620 kg/ha): 8.5; Preemergence herbicidal rating ECHCG ([11]; Rate 0.1250 kg/ha): 9.0; Preemergence herbicidal rating ECHCG ([11]; Rate 0.2500 kg/ha): 9.0; Preemergence herbicidal rating SETVI ([12]; Rate 0.0620 kg/ha): 8.5; Preemergence herbicidal rating SETVI ([12]; Rate 0.1250 kg/ha): 9.0; Preemergence herbicidal rating SETVI ([12]; Rate 0.2500 kg/ha): 9.0; Preemergence herbicidal rating GALAP ([13]; Rate 0.1250 kg/ha): 7.0; Preemergence herbicidal rating GALAP ([13]; Rate 0.2500 kg/ha): 9.0; ORYSAT herbicidal rating ([14]; rate 0.0320 kg/ha): 2.0; ORYSAT herbicidal rating ([14]; rate 0.0620 kg/ha): 4.0 |
